Earlier results, collected in US20250115648A1 (priority 2013, published 2025).
“And” between values parts separate entries of the source, which are not always exact repeats. Identical values can stand only once.

Details: cited from earlier work; for Peak Abs.: peak absorbance wavelength of exemplary fluorescent reporter molecule; for Peak Em.: peak emission wavelength of exemplary fluorescent reporter molecule

Compound | Peak Abs. | Peak Em. [nanometers]
CC(=O)Oc1ccc2c(c1)Oc1cc(OC(C)=O)ccc1C21OC(=O)c2cc(CCl)ccc21 [CellTracker Green] | 490 nanometers | 540
CC1=CC(C)(C)N(C)c2cc3[o+]c4cc5c(cc4c(-c4cc(NC(=O)c6ccc(CCl)cc6)ccc4C(=O)[O-])c3cc21)C(C)=CC(C)(C)N5C.CC1=CC(C)(C)N(C)c2cc3[o+]c4cc5c(cc4c(-c4ccc(NC(=O)c6ccc(CCl)cc6)cc4C(=O)[O-])c3cc21)C(C)=CC(C)(C)N5C [CellTracker Red CMTPX] | 584 nanometers | 613
O=c1cc(CBr)c2cc3c4c(c2o1)CCCN4CCC3 [CellTracker Violet BMQC] | 415 nanometers | 516
O=C([O-])c1ccc(C2=c3cc4c5c(c3Oc3c2cc2c6c3CCCN6CCC2)CCC[N+]=5CCC4)c(C(=O)O)c1 [Compound 5-ROX] | 577 nanometers | 603
Cc1c2oc3c(C)c(N)cc(C(=O)N[C@@H]4C(=O)N[C@H](C(C)C)C(=O)N5CCC[C@H]5C(=O)N(C)CC(=O)N(C)[C@@H](C(C)C)C(=O)O[C@@H]4C)c3nc-2c(C(=O)N[C@@H]2C(=O)N[C@H](C(C)C)C(=O)N3CCC[C@H]3C(=O)N(C)CC(=O)N(C)[C@@H](C(C)C)C(=O)O[C@@H]2C)c(N)c1=O [Compound 7-AAD, 7-AAD] | 549 nanometers | 644
CCCCCCCCCCCC[N+](C)(CCCS(=O)(=O)[O-])Cc1ccc2oc(-c3ccc(N(CC)CC)cc3)c(O)c(=O)c2c1 (stereo not drawn) [Compound F2N12S] | 405 nanometers | 
CCN1C(=CC=CC2=[N+](CCCCCC(=O)O)c3ccc(S(=O)(=O)O)cc3C2(C)C)C(C)(C)c2cc(S(=O)(=O)[O-])ccc21 [Cy3] | 552 nanometers | 570
CCN1C(=CC=CC=CC=CC2=[N+](CCCCCC(=O)O)c3ccc(S(=O)(=O)O)cc3C2(C)C)C(C)(C)c2cc(S(=O)(=O)[O-])ccc21 [Cy7] | 745 nanometers | 766
CC1(C)C2=C(Cl)C(=O)C(Cl)=CC2=Nc2ccc(O)cc21 [DDAO] | 648 nanometers | 658
CN(C)CCNc1ccc(O)c2c1C(=O)c1c(O)ccc(NCCN(C)C)c1C2=O [DRAQ5] | 650 nanometers | 680
CCN1c2cc3c(cc2C(C)=CC1(C)C)C(=CC=CC1=[N+](CCCCCC(=O)O)c2ccc(S(=O)(=O)[O-])cc2C1(C)C)C=C(c1ccccc1)O3 [DY-675] | 675 nanometers | 699
CCCCCCCCCCCCCCCCCCN1/C(=C/C=C/C=C/C2=[N+](CCCCCCCCCCCCCCCCCC)c3ccccc3C2(C)C)C(C)(C)c2ccccc21.[O-][Cl+3]([O-])([O-])[O-] [DiD (Vybrant DiD)] | 645 nanometers | 670
Cc1cc(=O)oc2c(F)c(O)c(F)cc12 [DiFMU (pH 9.0)] | 357 nanometers | 450
CCCCCCCCCCCCCCCCCCN1/C(=C/C=C/C2=[N+](CCCCCCCCCCCCCCCCCC)c3ccccc3C2(C)C)C(C)(C)c2ccccc21.[O-][Cl+3]([O-])([O-])[O-] [DiI (CellTrackerDiI)] | 551 nanometers | 568
CCCCCCCCCCCCCCCCCCN1/C(=C\C=C\c2oc3ccccc3[n+]2CCCCCCCCCCCCCCCCCC)Oc2ccccc21.[O-][Cl+3]([O-])([O-])[O-] [DiO (Vybrant DiO)] | 489 nanometers | 506
CCCCCCCCCCCCCCCCCCN1/C(=C\C=C\c2oc3ccccc3[n+]2CCCCCCCCCCCCCCCCCC)Oc2ccccc21.[O-][Cl+3]([O-])([O-])[O-] [DiO] | 484 nanometers | 501

Compound | Peak Abs. | Peak Em. [nanometers]
CN(C)c1ccc(-c2cnc(-c3ccc(S(=O)(=O)NCCNC(=O)c4c(F)c(F)c(F)c(F)c4F)cc3)o2)cc1 [ER-Tracker Blue-White DPX] | 371 nanometers | 554
O=C1OC2(c3ccc(O)cc3Oc3cc(O)ccc32)c2ccc(N=C=S)cc21 [FITC (Fluorescein), fluorescein isothiocyanine] | 492 nanometers | 520
CC(=O)Oc1cc2c(cc1Cl)C(c1ccccc1C(=O)O)c1cc(Cl)c(OC(C)=O)cc1O2 [H2DCFDA (H2-DCF, DCFR)] | 504 nanometers | 540
O=S(=O)([O-])c1cc(O)c2ccc3c(S(=O)(=O)[O-])cc(S(=O)(=O)[O-])c4ccc1c2c34.[Na+].[Na+].[Na+] [HPTS (Solvent Green 7)] | 455 nanometers | 510
CC1(C)C(=CC=C2CCCC(C=CC3=[N+](CCCCCC(=O)[O-])c4ccc(S(=O)(=O)[O-])cc4C3(C)C)=C2Oc2ccc(S(=O)(=O)[O-])cc2)N(CCCCS(=O)(=O)[O-])c2ccc(S(=O)(=O)[O-])cc21.[Na+].[Na+].[Na+].[Na+] [IRDye 800CW] | 774 nanometers | 789
CN(C)CCNC(=O)CCc1ccc2n1[B-](F)(F)[N+]1=C(c3ccc[nH]3)C=CC1=C2 [LysoTracker Red] | 573 nanometers | 592
Cc1c(CC(=O)O)c(=O)oc2c(F)c(O)c(F)cc12 [Marina Blue] | 365 nanometers | 460
C[N+]1=C(/C=C/C=C/C=C2\N(Cc3ccc(CCl)cc3)c3ccccc3C2(C)C)C(C)(C)c2ccccc21.[Cl-] [MitoTracker Deep Red FM] | 641 nanometers | 661
ClCc1ccc(C2=c3cc4c5c(c3Oc3c2cc2c6c3CCCN6CCC2)CCC[N+]=5CCC4)cc1.[Cl-] [MitoTracker Red CMXRos] | 578 nanometers | 597
Nc1ccc([N+](=O)[O-])c2nonc12 [NBD Amine] | 450 nanometers | 530
O=C(O)CCCCCNc1ccc([N+](=O)[O-])c2nonc12 [NBD-X] | 467 nanometers | 538
O=C(O)CSc1c(F)c(F)c(C(=O)O)c(-c2c3cc(F)c(=O)cc-3oc3cc(O)c(F)cc23)c1F [Oregon Green 514] | 512 nanometers | 532
COc1cc2cc(-c3ccc(C(=O)O)cc3C(=O)O)oc2cc1N1CCOCCOCCN(c2cc3oc(-c4ccc(C(=O)O)cc4C(=O)O)cc3cc2OC)CCOCCOCC1 [PBFI] | 360 nanometers | 420
CN1/C(=C/c2cc[n+](CCC[N+](C)(C)CCC[N+](C)(C)CCC[n+]3ccc(/C=C4/Oc5ccccc5N4C)cc3)cc2)Oc2ccccc21.[I-].[I-].[I-].[I-] [POPO-1] | 434 nanometers | 456
CN1/C(=C/C=C/c2cc[n+](CCC[N+](C)(C)CCC[N+](C)(C)CCC[n+]3ccc(/C=C/C=C4/Oc5ccccc5N4C)cc3)cc2)Oc2ccccc21.[I-].[I-].[I-].[I-] [POPO-3] | 532 nanometers | 573
O=C(O)c1cc2cc(F)c(O)c(F)c2oc1=O [Pacific Blue] | 405 nanometers and 410 nanometers | 455
